# Target: T1, Prostaglandin G/H synthase 1 (Bos taurus) (UniProt O62664)
# T1 sequence (whole entry): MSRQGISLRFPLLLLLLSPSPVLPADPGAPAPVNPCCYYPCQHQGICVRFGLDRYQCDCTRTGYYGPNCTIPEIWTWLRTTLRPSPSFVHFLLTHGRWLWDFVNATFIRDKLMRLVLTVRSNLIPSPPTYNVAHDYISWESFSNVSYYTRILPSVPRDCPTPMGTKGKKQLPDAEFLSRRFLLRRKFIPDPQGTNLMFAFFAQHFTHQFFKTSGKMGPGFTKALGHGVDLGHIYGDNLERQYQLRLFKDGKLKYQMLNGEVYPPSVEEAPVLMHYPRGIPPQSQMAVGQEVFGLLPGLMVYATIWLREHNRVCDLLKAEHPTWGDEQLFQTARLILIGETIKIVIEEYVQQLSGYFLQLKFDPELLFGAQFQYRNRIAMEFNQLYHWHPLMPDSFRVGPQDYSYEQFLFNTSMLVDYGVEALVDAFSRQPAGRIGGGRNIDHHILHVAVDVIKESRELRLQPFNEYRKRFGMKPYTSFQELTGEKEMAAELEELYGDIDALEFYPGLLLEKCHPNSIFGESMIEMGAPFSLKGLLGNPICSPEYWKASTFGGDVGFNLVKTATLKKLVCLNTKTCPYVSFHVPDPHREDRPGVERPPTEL
# Experiment: Inhibition of bovine seminal microsomal COX1 assessed as PGE2 production at 100 uM preincubated for 10 mins
structure (smiles),measurement,value
CS(=O)(=O)Nc1ccc([N+](=O)[O-])cc1OC1CCCCC1,inhibition,9%

# From ChEMBL document CHEMBL1158843, “Development of a radiochemical cyclooxygenase-1 and -2 in vitro assay for identification of natural products as inhibitors of prostaglandin biosynthesis” (J Nat Prod, 1998)
